Counter-ions that a name gives are not always drawn.

One assay relates to human neurons. Nature of the assay: Iron (FeSO4) mediated neurotoxicity screening, MAP-2 positive neurons counted. It counts as cell-based. Conditions: Homo sapiens, Neuron, 24 h, read-out: Drug % control (mean): number of neurons normalized to untreated control. The procedure: Human neurons were isolated from brain tissues of therapeutically aborted 15-20 week old fetuses, in accordance with ethics approval of the University of Calgary ethics committee, after written informed consent of the pregnant donors. Neurons were isolated as previously described (Vecil et al., 2000) brain specimens were washed in phosphate buffered saline (PBS) to remove blood, followed by removal of meninges. […] Thereafter, the digestion was stopped by addition of 4 ml fetal calf serum (FCS). […] Cells were cultured in feeding medium of minimal essential medium (MEM) supplemented with 10% fetal bovine serum (FBS), 1 μM sodium pyruvate, 10 μM glutamine, 1× non-essential amino acids, 0.1% dextrose and 1% penicillin/streptomycin (all culture supplements from Invitrogen, Burlington, Canada). […] For experiments, the neuron-enriched cultures were retrypsinized and cells were plated in poly-L-ornithine pre-coated 96-well plates at a density of 100,000 cells/well in 100 μl of the complete medium supplemented with cytosine arabinoside. […] All conditions were performed in quadruplicates. A day later cells were fixed using 4% paraformaldehyde (PFA) and stored in PBS in 4° C.
Briefly, there were 80 compounds located in specific wells on each plate (e. g. B07). […] Each compound was supplied at a concentration of 10 mM dissolved in DMSO.
After filtering with a 0.2 μm filter, FeSO4 was added to cells in a final concentration of 25-50 μM in a volume of 50 μl medium to the cells. Rotenone was dissolved in dimethyl sulfoxide (DMSO) and used in a final concentration of 10 μM.
Staining was performed at room temperature. A blocking buffer was first introduced for 1 h followed by incubation with primary antibody overnight in 4° C.
Cell nuclei were stained with Hoechst S769121 (nuclear yellow). Cells were stored in 4° C. in the dark before imaging.
Images were taken using the automated ImageXpress® imaging system (Molecular Devices, Sunnyvale, Calif.) through a 10x objective microscope lens, displaying 4 or 9 sites per well. […] Cells were defined according to fluorescence intensity and size at different wavelengths. Data from all sites per well were averaged to one data point.
Neurons were pre-incubated with each compound for 1 h followed by application of FeSO4.
`CN1[C@@H]2CC[C@H]1C[C@@H](OC(c1ccccc1)c1ccccc1)C2` [BENZTROPINE]: the viability at 10 µM stood at 11.4%.

The same assay, now with this note: Homo sapiens, Neuron; drug 10 μM 1 h before FeSO4 25 or 50 μM; MAP-2 neurons after 24 h; read-out: Drug % control (mean): number of neurons normalized to untreated control.
For the molecule `CC(C)c1nc(N(C)S(C)(=O)=O)nc(-c2ccc(F)cc2)c1/C=C/[C@@H](O)C[C@@H](O)CC(=O)O` [ROSUVASTATIN], the viability at 10 µM was 35.4%. As for `NC[C@H]1CC[C@H](C(=O)O)CC1` [TRANEXAMIC ACID], the viability at 10 µM stood at 36.3%. Still for that read-out and setting: as for `COc1ccc2cc(CCC(C)=O)ccc2c1` [NABUMETONE], the figure is 48.9%. As to `C1N2CN3CN1CN(C2)C3` [METHENAMINE], the viability at 10 µM was 1.94%. On the same count and under the same terms, the same measure for `COc1c(C)c2c(c(O)c1C/C=C(\C)CCC(=O)O)C(=O)OC2` [MYCOPHENOLIC ACID]: 45.7%; for `CN(C)CCc1c[nH]c2ccc(CS(=O)(=O)N3CCCC3)cc12` [ALMOTRIPTAN]: 94.4%.

Turning to `CC(=O)Oc1ccc(C(c2ccc(OC(C)=O)cc2)c2ccccn2)cc1` [BISACODYL], the viability at 10 µM is 93.3%.

With `Cc1noc(NS(=O)(=O)c2ccc(N)cc2)c1C` [SULFISOXAZOLE], the viability at 10 µM is 38.3%.

For the molecule `CC(=O)N[C@@H](CS)C(=O)O` [ACETYLCYSTEINE], the viability at 10 µM came out at 21.7%.

As to `CCCNC(=O)NS(=O)(=O)c1ccc(Cl)cc1` [CHLORPROPAMIDE], the viability at 10 µM was found to be 5.32%.

`CCc1cccc2c3c([nH]c12)C(CC)(CC(=O)O)OCC3` (centres unmarked) [ETODOLAC]: the viability at 10 µM was determined as 34.4%. Regarding `CN1C(C(=O)Nc2ccccn2)=C(O)c2ccccc2S1(=O)=O` [PIROXICAM], the viability at 10 µM worked out at 36.2%.

As to `CN(CCOc1ccc(CC2SC(=O)NC2=O)cc1)c1ccccn1` (centres unmarked) [ROSIGLITAZONE], the viability at 10 µM amounted to 77.6%. The same measure, in the same setting: as for `CCCN(CCC)S(=O)(=O)c1ccc(C(=O)O)cc1` [PROBENECID], the figure is 71.5%; as for `CCCNCC(O)COc1ccccc1C(=O)CCc1ccccc1` (centres unmarked) [PROPAFENONE HYDROCHLORIDE], 51.3%. Same read-out and setting: as for `NC(=O)C[S+]([O-])C(c1ccccc1)c1ccccc1` (centres unmarked) [MODAFINIL], the figure is 43.9%. Turning to `COc1ccccc1OCC(O)CO` (centres unmarked) [GUAIFENESIN], the viability at 10 µM came to 3.28%. Same read-out and setting: as for `CC(=O)OCC(CCn1cnc2cnc(N)nc21)COC(C)=O` [FAMCICLOVIR], the figure is 91%. For `CCCC1O[C@@H]2C[C@H]3[C@@H]4CCC5=CC(=O)C=C[C@]5(C)[C@H]4[C@@H](O)C[C@]3(C)[C@]2(C(=O)CO)O1` (some centres unmarked) [BUDESONIDE], the viability at 10 µM amounted to 70%.

Consider `C[C@@H]1O[C@@H]1P(=O)(O)O` [FOSFOMYCIN], for which the viability at 10 µM worked out at 31.2%. Same read-out and setting: as for `C=CCN1CC[C@]23c4c5ccc(O)c4O[C@H]2C(=O)CC[C@@]3(O)[C@H]1C5` [NALOXONE HYDROCHLORIDE], the figure is 69.5%; as for `Cn1cnc([N+](=O)[O-])c1Sc1ncnc2nc[nH]c12` [AZATHIOPRINE], 4.65%. `OC[C@H]1O[C@@H](O[C@@H]2[C@@H](CO)OC(O)(CO)[C@H]2O)[C@H](O)[C@@H](O)[C@H]1O` (mixture of isomers) [LACTULOSE]: the viability at 10 µM was 80.8%. Consider `CN1CCN(C2=Nc3ccccc3Oc3ccc(Cl)cc32)CC1` [LOXAPINE SUCCINATE], for which the viability at 10 µM is 65.9%. Still for that read-out and setting: as for `NC12CC3CC(CC(C3)C1)C2` [AMANTADINE HYDROCHLORIDE], the figure is 52.6%; as for `Cc1c(Cl)cccc1Nc1ccccc1C(=O)O` [TOLFENAMIC ACID], 40.3%. Turning to `NS(=O)(=O)c1cc(C(=O)O)c(NCc2ccco2)cc1Cl` [FUROSEMIDE], the viability at 10 µM is 3.96%.

Take `OCCOCCN1CCN(C(c2ccccc2)c2ccc(Cl)cc2)CC1` (centres unmarked) [HYDROXYZINE PAMOATE]: the viability at 10 µM is 4.01%. On the same count and under the same terms, as for `COCCc1ccc(OCC(O)CNC(C)C)cc1` (centres unmarked) [METOPROLOL TARTRATE], the figure is 71.5%; as for `NC(=O)N1c2ccccc2CC(=O)c2ccccc21` [OXCARBAZEPINE], 38.2%; as for `O=C1NC(=O)C(c2ccccc2)(c2ccccc2)N1` [PHENYTOIN SODIUM], 30.1%. Same read-out and setting: the same measure for `CC[N+](C)(C)c1cccc(O)c1` [EDROPHONIUM CHLORIDE]: 44%; for `CCCCCCCCCCC[C@@H](C[C@@H]1OC(=O)[C@H]1CCCCCC)OC(=O)[C@H](CC(C)C)NC=O` [ORLISTAT]: 1%. With `COc1ccc(C(CN(C)C)C2(O)CCCCC2)cc1` (centres unmarked) [VENLAFAXINE], the viability at 10 µM came to 72.5%.

Take `CN/C(=N/CCSCc1nc[nH]c1C)NC#N` [CIMETIDINE]: the viability at 10 µM was 34.4%. As for `N=C(N)NC(=O)c1nc(Cl)c(N)nc1N` [AMILORIDE HYDROCHLORIDE], the viability at 10 µM was determined as 37.1%. The same measure, in the same setting: the same measure for `CCC(=O)O[C@H]1[C@H](O[C@@H]2[C@@H](C)[C@H](O[C@H]3C[C@@](C)(OC)[C@@H](O)[C@H](C)O3)[C@@H](C)C(=O)O[C@H](CC)[C@@](C)(O)[C@H](O)[C@@H](C)C(=O)[C@H](C)C[C@@]2(C)O)O[C@H](C)C[C@@H]1N(C)C` [ERYTHROMYCIN ESTOLATE]: 56.7%; for `O=C(c1ccccc1)c1ccc2n1CCC2C(=O)O` (centres unmarked) [KETOROLAC TROMETHAMINE]: 52.4%; for `COc1ccccc1OCC(O)COC(N)=O` (centres unmarked) [METHOCARBAMOL]: 0.84%. Regarding `CCOC(=O)[C@H](CCc1ccccc1)N[C@@H](C)C(=O)N1[C@H](C(=O)O)C[C@H]2CCCC[C@@H]21` [TRANDOLAPRIL], the viability at 10 µM came to 72.3%. For `O=C1[C@H](CC[C@H](O)c2ccc(F)cc2)[C@@H](c2ccc(O)cc2)N1c1ccc(F)cc1` [EZETIMIBE], the viability at 10 µM stood at 50.5%. As to `CCCCc1oc2ccccc2c1C(=O)c1cc(I)c(OCCN(CC)CC)c(I)c1` [AMIODARONE HYDROCHLORIDE], the viability at 10 µM came to 71.3%.

Take `NS(=O)(=O)c1cc2c(cc1Cl)NCNS2(=O)=O` [HYDROCHLOROTHIAZIDE]: the viability at 10 µM was determined as 2.55%. Regarding `Clc1ccccc1C(c1ccccc1)(c1ccccc1)n1ccnc1` [CLOTRIMAZOLE], the viability at 10 µM worked out at 12.4%. Still for that read-out and setting: the same measure for `CC(C(=O)O)c1cccc(C(=O)c2ccccc2)c1` (centres unmarked) [KETOPROFEN]: 44.3%; for `CC(NC(C)(C)C)C(=O)c1cccc(Cl)c1` (centres unmarked) [BUPROPION]: 55.5%; for `Nc1cc(N2CCCCC2)nc(N)[n+]1[O-]` [MINOXIDIL]: 33.7%. Still for that read-out and setting: as for `Oc1ncnc2[nH]ncc12` [ALLOPURINOL], the figure is 25.5%. Regarding `CN1CCN(CCCN2c3ccccc3Sc3ccc(Cl)cc32)CC1` [PROCHLORPERAZINE EDISYLATE], the viability at 10 µM came to 4.88%. The same measure, in the same setting: the same measure for `CN1CCC[C@@H]1CCO[C@](C)(c1ccccc1)c1ccc(Cl)cc1` [CLEMASTINE]: 6.19%; for `CC[C@H]1OC(=O)[C@H](C)[C@@H](O[C@H]2C[C@@](C)(OC)[C@@H](O)[C@H](C)O2)[C@H](C)[C@@H](O[C@@H]2O[C@H](C)C[C@H](N(C)C)[C@H]2O)[C@](C)(O)C[C@@H](C)CN(C)[C@H](C)[C@@H](O)[C@]1(C)O` [AZITHROMYCIN]: 56.8%. Still for that read-out and setting: the same measure for `CCc1ccc(CCOc2ccc(CC3SC(=O)NC3=O)cc2)nc1` (centres unmarked) [PIOGLITAZONE HYDROCHLORIDE]: 84.6%.

Turning to `O=C1CC[C@@]2(O)[C@H]3Cc4ccc(O)c5c4[C@@]2(CCN3CC2CC2)[C@H]1O5` [NALTREXONE HYDROCHLORIDE], the viability at 10 µM turned out to be 39.5%. In the case of `COc1ccc2c(c1)c(CC(=O)O)c(C)n2C(=O)c1ccc(Cl)cc1` [INDOMETHACIN], the viability at 10 µM came out at 4.52%. With `C[C@@H](CO)NC(=O)[C@@H]1C=C2c3cccc4[nH]cc(c34)C[C@H]2N(C)C1` [ERGONOVINE MALEATE], the viability at 10 µM came out at 42.7%. On to `CN(C)c1nc(N(C)C)nc(N(C)C)n1` [ALTRETAMINE], for which the viability at 10 µM turned out to be 4.2%.

Still in this assay, the particulars now being: drug 10 μM 1 h before FeSO4 25 or 50 μM; MAP-2 neurons after 24 h.
On to `CCCc1nc(C(C)(C)O)c(C(=O)OCc2oc(=O)oc2C)n1Cc1ccc(-c2ccccc2-c2nnn[nH]2)cc1` [OLIVEESARTAN MEDOXOMIL], for which the “Drug % control (mean): number of neurons normalized to untreated control” value was 55.85%. Regarding CRESOL, the “Drug % control (mean): number of neurons normalized to untreated control” value came to 6.04%. Same read-out and setting: the same measure for `CN(C)CC[C@@H](c1ccc(Cl)cc1)c1ccccn1.O=C(O)/C=C\C(=O)O` [CHLORPHENIRAMINE(S) MALEATE]: 52.32%; for `CC(C)NCC(O)COc1cccc2ccccc12.Cl` (racemic) [PROPRANOLOL HYDROCHLORIDE (+/−)]: 66.49%.

Regarding `CCOc1nc2cccc(C(=O)OC(C)OC(=O)OC3CCCCC3)c2n1Cc1ccc(-c2ccccc2-c2nn[nH]n2)cc1` (centres unmarked) [CANDESARTAN CILEXTIL], the “Drug % control (mean): number of neurons normalized to untreated control” value turned out to be 35.48%.
